Source: publication PMC5603573, “Cyclipostins and Cyclophostin analogs as promising compounds in the fight against tuberculosis” (Scientific Reports, 2017)
Values after ≈ are worked out from the molar mass of the structure shown. Where two headings read alike, the source gives them in different places.

Assays:
in vitro = conditions: mouse
M. tb H37Rv-GFP [1] = experiment: microbe, parasite or virus in culture; assay type: cell-based, Mycobacterium tuberculosis
[2] = tested on: M. tb H37Rv-GFP replicating inside Raw264.7 macrophages; experiment: microbe, parasite or virus in culture; assay type: cell-based, Mycobacterium tuberculosis; conditions: for MIC50: read-out: Intracellular macrophage growth MIC50
M. tb mc^26230 WT = experiment: microbe, parasite or virus in culture; assay type: cell-based; conditions: REMA
[3] = tested on: serine/cysteine enzymes in M. tb mc^26230 lysate; experiment: Competitive ABPP labelling/enrichment with Desthiobiotin-FP (and TAMRA-FP), LC-MS/MS target identification; assay type: binding, Mycobacterium tuberculosis; conditions: lysate pre-incubated with 580 µM inhibitor, 37 °C, 90 min
[4] = tested on: M. tb mc^26230-empty vector; experiment: REMA, empty vector strain; assay type: cell-based, Mycobacterium tuberculosis; conditions: Mycobacterium tuberculosis, REMA
[5] = tested on: Raw264.7 murine macrophages; design: method as in PMID 19876393; conditions: 50% host cell toxicity, Raw264.7 macrophages, read-out: Intracellular macrophage growth CC50, cited from earlier work
[6] = tested on: M. tb H37Rv-GFP replicating inside Raw264.7 macrophages; design: method as in PMID 19876393; conditions: Raw264.7 macrophages infected with M. tb H37Rv-GFP; cited from earlier work
M. tb H37Rv-GFP [7] = tested on: M. tb H37Rv-GFP; design: method as in PMID 19876393; conditions: M. tb H37Rv-GFP in broth medium; cited from earlier work
M. tb [8] = tested on: M. tb; design: method as in earlier work; conditions: combined application with vancomycin; ref 62 (Orlistat), 28 (Lalistat); cited from earlier work
M. tb [9] = tested on: M. tb; design: method as in PMID 23029536, PMID 27503643, doi:10.1039/C6MD00231E; conditions: M. tb growth, inhibitor alone; cited from earlier work
[10] = Mycobacterium tuberculosis, H37RV, 120 h, read-out: Extracellular growth MIC50
[11] = Mycobacterium tuberculosis, H37RV, 120 h
[12] = read-out: Extracellular growth MIC50

For `CCCCCCCCCC[C@@H]1CC[P@](=O)(OC)OC(C)=C1C(=O)OC` (relative stereo) [CyC 7(α)], the CC50 (in vitro) was greater than 100 µM, the MIC50 (M. tb H37Rv-GFP [1]; [10]) was 92.6 µM (≈ 34.7 µg/mL) and the MIC50 [2, 11] was 4.5 µM (≈ 1.69 µg/mL).
Work on `CCCCCCCCCCCC[C@@H]1CC[P@](=O)(OC)OC(C)=C1C(=O)OC` (relative stereo) [CyC 8(α)] yielded a CC50 (in vitro) greater than 100 µM, an MIC50 [2, 11] of 3 to 4 µM (≈ 1.21 to 1.61 µg/mL) and an MIC50 [2] of 4.0 µM (≈ 1.61 µg/mL).
For `CCCCCC1CCP(=O)(OC)OC(C)=C1C(=O)OC` (stereo not drawn) [CyC 6(β)], the CC50 (in vitro) was greater than 100 µM, the “Extracellular growth MIC50” value (M. tb H37Rv-GFP [1]) was “No effect” and the MIC50 [2, 11] was 12.6 µM (≈ 3.83 µg/mL).
`CCCCCCCCCCC1CCP(=O)(OC)OC(C)=C1C(=O)OC` (stereo not drawn) [CyC 7(β)] gave a CC50 (in vitro) greater than 100 µM, an MIC50 (M. tb H37Rv-GFP [1]; [10]) of 16 to 40 µM (≈ 5.99 to 15 µg/mL) and an MIC50 (M. tb H37Rv-GFP [1]; [12]) of 16.6 µM (≈ 6.22 µg/mL). For the same compound, the MIC50 [2, 11] was 3 to 4 µM (≈ 1.12 to 1.5 µg/mL) and the MIC50 [2] was 3.1 µM (≈ 1.16 µg/mL).
Work on `CCCCCCCCCCCCC1CCP(=O)(OC)OC(C)=C1C(=O)OC` (stereo not drawn) [CyC 8(β)] yielded a CC50 (in vitro) greater than 20 µM, an MIC50 (M. tb H37Rv-GFP [1]; [10]) greater than 100 µM and an MIC50 [2, 11] of 11.7 µM (≈ 4.71 µg/mL).
For `CCCCCCCCCCCCCCCCOP1(=O)CCCC(C(=O)OC)=C(C)O1` (centres unmarked) [CyC 11], the “antibacterial activity against M. tb (in words)” value (“antibacterial activity” for short) (M. tb H37Rv-GFP [1]) was “non-active”.
In the case of `CCCCCCCCCCCCCCCCCCOP1(=O)CCCC(C(=O)OC)=C(C)O1` (centres unmarked) [CyC 12], the “antibacterial activity” value (M. tb H37Rv-GFP [1]) is reported as “non-active”.
In the case of `CCCCCCCCCCCCCCCCOP1(=O)CCC(CCCCCCCCCC)C(C(=O)OC)=C(C)O1` (centres unmarked) [CyC 13], the “antibacterial activity” value (M. tb H37Rv-GFP [1]) is reported as “did not yield any significant antibacterial activity”.
For `CCCCCCCCCCCCCCCCOP1(=O)OC(C)=C(C(=O)OC)CCC1(F)F` (centres unmarked) [CyC 14], the “antibacterial activity” value (M. tb H37Rv-GFP [1]) was “non-active”.
For `CCCCCCCCCCCCCCCCOP1(=O)OCCC(C(=O)OC)=C(C)O1` (centres unmarked) [CyC 17], the CC50 (in vitro) was greater than 100 µM, the MIC50 (M. tb mc^26230 WT; Mycobacterium tuberculosis, read-out: MIC50) was 0.55 ± 0.023 µM (≈ 0.246 µg/mL) and the MIC50 (M. tb mc^26230 WT) was 0.55 ± 0.023 µM (≈ 0.246 µg/mL). For the same compound, the MIC50 (M. tb H37Rv-GFP [1]; [10]) was 0.5 µM (≈ 0.223 µg/mL), the MIC50 (M. tb H37Rv-GFP [1]; Mycobacterium tuberculosis, H37RV, read-out: Extracellular MIC50) was roughly 0.5 µM (≈ 0.223 µg/mL) and the MIC50 (M. tb H37Rv-GFP [1]; [12]) was 0.50 µM (≈ 0.223 µg/mL). For the same compound, the “Effect of pre-treatment on Desthiobiotin-FP labelled bands (SDS-PAGE)” value [3] was “decrease in intensity of bands 1, 2 and 8; or disapearance of bands 3-7 and 9”, the “Intracellular macrophage growth MIC50” value [2] was “No effect” and the MIC50 [4] was 0.52 ± 0.01 µM (≈ 0.232 µg/mL).
In the case of `CCCCCCCCCCCCCCCCO[P@]1(=O)OC[C@@H]2COC(=O)C2=C(C)O1` [CyC 18(α)], the CC50 (in vitro) is reported as greater than 100 µM, the MIC50 (M. tb H37Rv-GFP [1]; [10]) is reported as 24.4 µM (≈ 10.8 µg/mL) and the “Intracellular macrophage growth MIC50” value [2] is reported as “No effect”.
In the case of `CCCCCCCCCCCCCCCCO[P@]1(=O)OC[C@H]2COC(=O)C2=C(C)O1` [CyC 18(β), Cyclipostins P], the CC50 (in vitro) is reported as greater than 100 µM, the MIC50 (M. tb H37Rv-GFP [1]; [10]) is reported as 1.7 µM (≈ 0.756 µg/mL) and the “Intracellular macrophage growth MIC50” value [2] is reported as “No effect”.
For `CCc1cc(C(N)=S)ccn1` [Ethionamide (ETO), Ethionamide], the CC50 ([5]; listed as ethionamide) is given as no less than 120 µM, the CC50 [5] is given as 120 µM and the “Intracellular macrophage growth MIC50” value [6] is given as 6.0 µM. The “Extracellular growth MIC50” value (M. tb H37Rv-GFP [7]) was 6.0 µM.
In the case of `NNC(=O)c1ccncc1` [Isoniazid (INH), Isoniazid], the CC50 [5] is given as greater than 150 µM, the “Intracellular macrophage growth MIC50” value [6] is given as 1.2 µM and the “Extracellular growth MIC50” value (M. tb H37Rv-GFP [7]) is given as 1.2 µM.
For `CCCCCCCCCCC[C@@H](C[C@@H]1OC(=O)[C@H]1CCCCCC)OC(=O)[C@H](CC(C)C)NC=O` [Orlistat], the MIC (M. tb [8]) is listed as ~ 6 µM, the MIC drop (M. tb [8]) is listed as 16 fold and the MIC (M. tb [9]) is listed as 25 to 50 µM.
In the case of `CO[C@H]1/C=C/O[C@@]2(C)Oc3c(C)c(O)c4c(O)c(c(/C=N/N5CCN(C)CC5)c(O)c4c3C2=O)NC(=O)/C(C)=C\C=C\[C@H](C)[C@H](O)[C@@H](C)[C@@H](O)[C@@H](C)[C@H](OC(C)=O)[C@@H]1C` [Rifampicin (RIF), Rifampicin], the CC50 [5] is given as 24 µM, the “Intracellular macrophage growth MIC50” value [6] is given as 2.9 µM and the “Extracellular growth MIC50” value (M. tb H37Rv-GFP [7]) is given as 0.01 µM.
In the case of Lalistat, the MIC (M. tb [8]) is listed as 6 to 12 µM, the MIC drop (M. tb [8]) is listed as 4 fold and the MIC (M. tb [9]) is listed as 25 to 50 µM.
For MmPPOX, the MIC (M. tb [9]) is listed as 25 to 50 µM.
